Laboratory results as given in ChEMBL document CHEMBL4359906, “Design and synthesis of new N-terminal fatty acid modified-antimicrobial peptide analogues with potent in vitro biological activity” (Eur J Med Chem, 2019).
Active and inactive are the calls of the source. The calls are words filed in the database; no cut-off is given here.

Experiments:
[1] = tested on: Escherichia coli; test: Disruption of membrane integrity in Escherichia coli ATCC 25922 assessed as membrane damage by measuring PI fluorescence incubated for 1 hr by PI dye based flow cytometric analysis; type: functional, organism-based
[2] = tested on: Pseudomonas aeruginosa; test: Antibiofilm activity against Pseudomonas aeruginosa ATCC 27853 at 0.25 to 2 times of MIC after 24 hrs by crystal violet staining based assay; type: functional, organism-based
[3] = tested on: Escherichia coli; test: Disruption of membrane integrity in Escherichia coli ATCC 25922 assessed as membrane damage by measuring PI fluorescence at 2 times of MIC incubated for 1 hr by PI dye based flow cytometric analysis (reference value: 1.35%); type: functional
[4] = tested on: Escherichia coli; test: Antibacterial activity against Escherichia coli ATCC 25922 at 0.5 times MIC incubated for 18 hrs measured for 15 passages by CLSI based broth microdilution method; type: functional, organism-based
[5] = tested on: Escherichia coli; test: Antibacterial activity against Escherichia coli ATCC 25922 after 18 hrs in presence of FeCl3 by CLSI based broth microdilution method (reference value: 4 microM); type: functional; conditions: ATCC 25922, 18 h
[6] = Hemolytic activity in human RBC at 256 uM measured after 1 hr by microplate reader analysis relative to control; type: ADME, cell-based, Erythrocyte; conditions: human red blood cells (erythrocytes), read-out: Activity
[7] = tested on: Staphylococcus aureus; test: Antibiofilm activity against Staphylococcus aureus ATCC 25923 at 1 to 2 times of MIC after 24 hrs by crystal violet staining based assay; type: functional, organism-based
[8] = tested on: Escherichia coli; test: Antibiofilm activity against Escherichia coli ATCC 25922 assessed as reduction in biofilm inhibition at MIC after 24 hrs by crystal violet staining based assay relative to control; type: functional
[9] = tested on: Escherichia coli; test: Antimicrobial activity against Escherichia coli ATCC 25922 at 1 mM preincubated for 6 hrs in presence of 2 ug/ml chymotrypsin and measured after 18 hrs by microplate reader analysis; type: functional, organism-based
[10] = tested on: Staphylococcus aureus; test: Antibacterial activity against Staphylococcus aureus ATCC 25923 after 18 hrs in presence of KCl by CLSI based broth microdilution method (reference value: 16 microM); type: functional; conditions: ATCC 25923, 18 h
[11] = Cytotoxicity against mouse RAW264.7 cells assessed as cell proliferation at 64 uM after 1 hr by MTT assay relative to control; type: cell-based; conditions: read-out: Activity
[12] = tested on: Escherichia coli; test: Antimicrobial activity against Escherichia coli ATCC 25922 at 1 mM preincubated for 6 hrs in presence of 200 ug/ml chymotrypsin and measured after 18 hrs by microplate reader analysis; type: functional, organism-based
[13] = tested on: Staphylococcus aureus; test: Antibiofilm activity against Staphylococcus aureus ATCC 25923 at 2 times of MIC after 24 hrs by crystal violet staining based assay; type: functional, organism-based
[14] = tested on: DNA; test: Binding affinity to Escherichia coli ATCC 25922 genomic DNA at 4 x MIC after 30 mins by agarose gel electrophoresis; type: nucleic-acid assay
[15] = tested on: Escherichia coli; test: Antibiofilm activity against Escherichia coli ATCC 25922 assessed as reduction in biofilm inhibition at 0.5 to 1 times of MIC after 24 hrs by crystal violet staining based assay; type: functional, organism-based
[16] = tested on: Escherichia coli; test: Antimicrobial activity against Escherichia coli ATCC 25922 preincubated for 1 hr in presence of 10% mouse serum and measured after 18 hrs by CLSI-based broth microdilution assay (reference value: 16 microM); type: functional
[17] = tested on: Escherichia coli; test: Antibacterial activity against Escherichia coli ATCC 25922 after 18 hrs in presence of NaCl by CLSI based broth microdilution method (reference value: 16 microM); type: functional; conditions: ATCC 25922, 18 h
[18] = tested on: Escherichia coli; test: Antibacterial activity against Escherichia coli ATCC 25922 after 18 hrs in presence of KCl by CLSI based broth microdilution method (reference value: 16 microM); type: functional; conditions: ATCC 25922, 18 h
[19] = tested on: Escherichia coli; test: Antibacterial activity against Escherichia coli ATCC 25922 after 18 hrs in presence of MgCl2 by CLSI based broth microdilution method (reference value: 16 microM); type: functional; conditions: ATCC 25922, 18 h
[20] = tested on: Escherichia coli; test: Antimicrobial activity against Escherichia coli ATCC 25922 preincubated for 6 hrs in presence of 10% mouse serum and measured after 18 hrs by CLSI-based broth microdilution assay (reference value: 16 microM); type: functional
[21] = tested on: Escherichia coli; test: Antibacterial activity against Escherichia coli ATCC 25922 after 18 hrs in presence of FeCl3 by CLSI based broth microdilution method (reference value: 16 microM); type: functional; conditions: ATCC 25922, 18 h
[22] = tested on: Staphylococcus aureus; test: Antibacterial activity against Staphylococcus aureus ATCC 25923 after 18 hrs in presence of KCl by CLSI based broth microdilution method (reference value: 8 microM); type: functional; conditions: ATCC 25923, 18 h
[23] = tested on: Escherichia coli; test: Antimicrobial activity against Escherichia coli ATCC 25922 preincubated for 6 hrs in presence of 10% mouse serum and measured after 18 hrs by CLSI-based broth microdilution assay (reference value: 8 microM); type: functional
[24] = tested on: Escherichia coli; test: Antimicrobial activity against Escherichia coli ATCC 25922 preincubated for 1 hr in presence of 10% mouse serum and measured after 18 hrs by CLSI-based broth microdilution assay (reference value: 8 microM); type: functional
[25] = tested on: Escherichia coli; test: Antibacterial activity against Escherichia coli ATCC 25922 after 18 hrs in presence of MgCl2 by CLSI based broth microdilution method (reference value: 8 microM); type: functional; conditions: ATCC 25922, 18 h
[26] = Cytotoxicity against mouse RAW264.7 cells assessed as cell proliferation at 4 uM after 1 hr by MTT assay relative to control; type: cell-based; conditions: read-out: Activity
[27] = tested on: Staphylococcus aureus; test: Antibacterial activity against Staphylococcus aureus ATCC 25923 after 18 hrs in presence of NaCl by CLSI based broth microdilution method (reference value: 8 microM); type: functional; conditions: ATCC 25923, 18 h
[28] = tested on: Escherichia coli; test: Antibacterial activity against Escherichia coli ATCC 25922 after 18 hrs in presence of FeCl3 by CLSI based broth microdilution method (reference value: 8 microM); type: functional; conditions: ATCC 25922, 18 h
[29] = tested on: Escherichia coli; test: Antibacterial activity against Escherichia coli ATCC 25922 after 18 hrs in presence of KCl by CLSI based broth microdilution method (reference value: 8 microM); type: functional; conditions: ATCC 25922, 18 h
[30] = tested on: Staphylococcus aureus; test: Antibacterial activity against Staphylococcus aureus ATCC 25923 after 18 hrs in presence of MgCl2 by CLSI based broth microdilution method (reference value: 8 microM); type: functional; conditions: ATCC 25923, 18 h
[31] = tested on: Staphylococcus aureus; test: Antibacterial activity against Staphylococcus aureus ATCC 25923 after 18 hrs in presence of FeCl3 by CLSI based broth microdilution method (reference value: 8 microM); type: functional; conditions: ATCC 25923, 18 h
[32] = tested on: Escherichia coli; test: Antibacterial activity against Escherichia coli ATCC 25922 after 18 hrs in presence of NaCl by CLSI based broth microdilution method (reference value: 8 microM); type: functional; conditions: ATCC 25922, 18 h

SMILES	Activity [1]	inhibition [2]	Activity [3] [%]	Activity [4]	inhibition [7]	inhibition (INH) [8] [%]	Activity [9]	inhibition [13]	inhibition [15]	MIC [16] [µM]	MIC [17] [µM]	MIC [18] [µM]	MIC [19] [µM]	MIC [20] [µM]	MIC [21] [µM]	MIC [22] [µM]	MIC [23] [µM]	MIC [27] [µM]	MIC [30] [µM]	MIC [31] [µM]	other results
CCCCCCCC(=O)NC(Cc1cn(CCCC[C@H](NC(C)=O)C(=O)NCC(=O)N[C@@H](CC(C)C)C(=O)N[C@@H](CC(C)C)C(=O)N[C@H](CCCCN)C(=O)N[C@@H](CCCNC(=N)N)C(=O)N[C@H](C(=O)N[C@H](CCCCN)C(=O)N[C@H](C(=O)N[C@@H](CC(C)C)C(=O)N[C@@H](CC(C)C)C(N)=O)[C@@H](C)O)[C@@H](C)CC)nn1)C(=O)NCC(=O)N[C@@H](CC(C)C)C(=O)N[C@@H](CC(C)C)C(=O)N[C@H](CCCCN)C(=O)N[C@@H](CCCNC(=N)N)C(=O)N[C@H](C(=O)N[C@H](CCCCN)C(=O)N[C@H](C(=O)N[C@@H](CC(C)C)C(=O)N[C@@H](CC(C)C)C(N)=O)[C@@H](C)O)[C@@H](C)CC (some centres undefined)	Dose-dependent effect	Active	13.4	Active	Active	>50	Active														MIC [5]: 4 µM; hemolysis at 1 h, 256 µM [6]: < 5%; MIC [10]: 16 µM
CCCCCCCC(=O)NCC(=O)N[C@@H](CC(C)C)C(=O)N[C@@H](CC(C)C)C(=O)N[C@H](CCCCN)C(=O)N[C@@H](CCCNC(=N)N)C(=O)N[C@H](C(=O)N[C@H](CCCCN)C(=O)N[C@H](C(=O)N[C@@H](CC(C)C)C(=O)N[C@@H](CC(C)C)C(N)=O)[C@@H](C)O)[C@@H](C)CC	Dose-dependent effect	Active	64.6	Active			Active	Active	Active												viability at 1 h, 64 µM [11]: > 80%; Activity [12]: Active; Activity [14]: Active
CCCCCCCCCCCC(=O)NCC(=O)N[C@@H](CC(C)C)C(=O)N[C@@H](CC(C)C)C(=O)N[C@H](CCCCN)C(=O)N[C@@H](CCCNC(=N)N)C(=O)N[C@H](C(=O)N[C@H](CCCCN)C(=O)N[C@H](C(=O)N[C@@H](CC(C)C)C(=O)N[C@@H](CC(C)C)C(N)=O)[C@@H](C)O)[C@@H](C)CC	Dose-dependent effect		60.8	Active			Active	Active	Active	16	16	4	16	32	4						
CCCCCCCCCC(=O)NC(Cc1cn(CCCC[C@H](NC(C)=O)C(=O)NCC(=O)N[C@@H](CC(C)C)C(=O)N[C@@H](CC(C)C)C(=O)N[C@H](CCCCN)C(=O)N[C@@H](CCCNC(=N)N)C(=O)N[C@H](C(=O)N[C@H](CCCCN)C(=O)N[C@H](C(=O)N[C@@H](CC(C)C)C(=O)N[C@@H](CC(C)C)C(N)=O)[C@@H](C)O)[C@@H](C)CC)nn1)C(=O)NCC(=O)N[C@@H](CC(C)C)C(=O)N[C@@H](CC(C)C)C(=O)N[C@H](CCCCN)C(=O)N[C@@H](CCCNC(=N)N)C(=O)N[C@H](C(=O)N[C@H](CCCCN)C(=O)N[C@H](C(=O)N[C@@H](CC(C)C)C(=O)N[C@@H](CC(C)C)C(N)=O)[C@@H](C)O)[C@@H](C)CC (some centres undefined)	Dose-dependent effect	Active	56.3	Active	Active	>50	Active									16	16	8	4	8	MIC [24]: 8 µM; MIC [25]: 16 µM; viability at 1 h, 4 µM [26]: < 80%; MIC [28]: 4 µM; MIC [29]: 16 µM; MIC [32]: 8 µM
CCCCCCCCCC(=O)NCC(=O)N[C@@H](CC(C)C)C(=O)N[C@@H](CC(C)C)C(=O)N[C@H](CCCCN)C(=O)N[C@@H](CCCNC(=N)N)C(=O)N[C@H](C(=O)N[C@H](CCCCN)C(=O)N[C@H](C(=O)N[C@@H](CC(C)C)C(=O)N[C@@H](CC(C)C)C(N)=O)[C@@H](C)O)[C@@H](C)CC	Dose-dependent effect		49.6	Active			Active	Active	Active	16	32	16	16	16	8	8		8	8	8	
CCCCCCCCCCCC(=O)NC(Cc1cn(CCCC[C@H](NC(C)=O)C(=O)NCC(=O)N[C@@H](CC(C)C)C(=O)N[C@@H](CC(C)C)C(=O)N[C@H](CCCCN)C(=O)N[C@@H](CCCNC(=N)N)C(=O)N[C@H](C(=O)N[C@H](CCCCN)C(=O)N[C@H](C(=O)N[C@@H](CC(C)C)C(=O)N[C@@H](CC(C)C)C(N)=O)[C@@H](C)O)[C@@H](C)CC)nn1)C(=O)NCC(=O)N[C@@H](CC(C)C)C(=O)N[C@@H](CC(C)C)C(=O)N[C@H](CCCCN)C(=O)N[C@@H](CCCNC(=N)N)C(=O)N[C@H](C(=O)N[C@H](CCCCN)C(=O)N[C@H](C(=O)N[C@@H](CC(C)C)C(=O)N[C@@H](CC(C)C)C(N)=O)[C@@H](C)O)[C@@H](C)CC (some centres undefined)	Dose-dependent effect	Active	60.7	Active	Active	>50	Active									16	32	8	8	16	MIC [24]: 16 µM; MIC [25]: 32 µM; viability at 1 h, 4 µM [26]: < 80%; MIC [28]: 4 µM; MIC [29]: 16 µM; MIC [32]: 16 µM
